Assay results published in article PMC7738869, “A novel STAT3 inhibitor W2014-S regresses human non-small cell lung cancer xenografts and sensitizes EGFR-TKI acquired resistance” (Theranostics, 2021).
Values joined by “and” are separate entries in the source; they are usually repeats but may differ in a detail not shown here. Identical values can stand only once. Like-named read-outs stand apart in the source and are kept apart here.

Tests used:
STAT1 and STAT5 = test: Western blot of STAT1 and STAT5 activation in A549 and PC-9 cells; format: cell-based, human
Procedure: (§1) Cells or tumor tissue were lysed with RIPA buffer (Beyotime, Shanghai, China) supplemented with protease inhibitors (Beyotime, Shanghai, China) and phosphatase inhibitors (Bimake, USA). Lysates were denatured by heating for 5 min at 99 °C and loaded on 4-10% SDS-polyacrylamide gel electrophoresis. Then the proteins were transferred to polyvinylidene fluoride (PVDF) membranes (Millipore, USA). The membranes were blocked and probed with primary antibodies and secondary HPR-conjugated antibodies. At last the membranes were detected by chemiluminescence (Tanon, Shanghai, China). For co-immunoprecipitation experiments, 293T cells were plated and grew to about 80% confluency, then co-transfected with plasmids of HA-STAT3 and Flag-STAT3 using Lipofectamine 2000. After 24 h, cells were treated with different concentrations of W2014-S for following 24 h, and stimulated with IL-6 (100 ng/mL) for 1 h. Cells were lysed with IP RIPA buffer (Beyotime, Shanghai, China) supplemented with protease inhibitors (Beyotime, Shanghai, China) and phosphatase inhibitors (Bimake, America), and lysates were cultured with Anti-flag Affinity Gel (B23102, Bimake, USA) overnight at 4 ℃. The gel was washed by PBST for three times and added 1×loading buffer and denatured by heating for 5 min at 99 ℃. Then the proteins were resolved on SDS-PAGE, transferred to PVDF membranes and analysed with immunoblotting.

Pharmacokinetic study = format: in vivo, SD rats; conditions: for MRT inf: read-out: MRTINF_obs
Procedure: W2014-S was given to SD rats (male, 230-260g, n = 6) by gavage and intravenous administration. The rats were fasted for 12 h before administration and remained fasting for 2 h. For oral gavage, W2014-S was dissolved in DMSO/0.5% HPMC (5/95, v/v/), and W2014-S was dissolved in DMSO/EtOH/PEG300/0.9% NaCl (5/5/40/50, v/v/v/v) for intravenous administration. The pharmacokinetic (PK) profiles were next evaluated in SD rats.

STAT3-STAT3 dimerization = STAT3-STAT3 dimerization (Homo sapiens, UniProt P40763); test: Co-immunoprecipitation of HA-STAT3 and Flag-STAT3 in HEK-293T cells; format: cell-based; design: expressed in transfected cells; conditions: 24 h, 50 ng/mL EGF 30 min
STAT3-STAT3 dimerization, sequence (P40763 whole entry): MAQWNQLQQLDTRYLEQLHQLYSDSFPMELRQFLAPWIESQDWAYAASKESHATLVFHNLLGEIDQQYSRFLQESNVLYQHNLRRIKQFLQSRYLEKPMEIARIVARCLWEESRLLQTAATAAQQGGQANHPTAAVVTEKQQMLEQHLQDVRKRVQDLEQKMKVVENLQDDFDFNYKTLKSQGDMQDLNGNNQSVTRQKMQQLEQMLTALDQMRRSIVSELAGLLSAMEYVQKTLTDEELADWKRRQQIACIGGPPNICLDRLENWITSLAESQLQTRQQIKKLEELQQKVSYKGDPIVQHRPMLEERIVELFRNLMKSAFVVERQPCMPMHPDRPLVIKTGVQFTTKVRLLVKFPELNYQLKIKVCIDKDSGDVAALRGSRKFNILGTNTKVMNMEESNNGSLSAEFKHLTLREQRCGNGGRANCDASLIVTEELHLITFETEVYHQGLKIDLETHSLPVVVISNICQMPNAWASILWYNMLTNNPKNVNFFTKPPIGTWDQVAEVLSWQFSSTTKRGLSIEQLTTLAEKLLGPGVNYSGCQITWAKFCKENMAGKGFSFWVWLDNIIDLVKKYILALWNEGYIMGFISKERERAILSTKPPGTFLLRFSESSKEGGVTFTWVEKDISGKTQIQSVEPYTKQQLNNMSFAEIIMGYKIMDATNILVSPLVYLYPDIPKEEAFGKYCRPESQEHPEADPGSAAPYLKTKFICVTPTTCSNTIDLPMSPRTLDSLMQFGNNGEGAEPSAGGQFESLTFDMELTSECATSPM
Procedure: as §1, with “After 24 h, cells were treated with different concentrations of W2014-S for following 24 h, and stimulated with IL-6 (100 ng/mL) for 1 h.” left out

[1] = rat, i.v. 3 mg/kg, individual animals 4-6, 3 mg/kg
[2] = rat, p.o. 10 mg/kg, individual animals 1-3, 10 mg/kg

## C[C@H](Oc1ccc(-c2nc3nc(C4=CCN(C(=O)OC(C)(C)C)CC4)ccc3[nH]2)cc1)c1ccccc1 [W2014-S]
STAT1 and STAT5
  STAT1 and STAT5 activation: no obvious effect
Pharmacokinetic study; i.v. 3 mg/kg, 0.05 h, 3 mg/kg
  Concentration in rat plasma, individual animals 4-6: 0.335 µg/mL and 0.339 µg/mL
Pharmacokinetic study; i.v. 3 mg/kg, 0.25 h, 3 mg/kg
  Concentration in rat plasma, individual animals 4-6: 0.145 µg/mL and 0.134 µg/mL
Pharmacokinetic study; i.v. 3 mg/kg, 0.75 h, 3 mg/kg
  Concentration in rat plasma, individual animals 4-6: 0.0669 µg/mL and 0.0801 µg/mL
Pharmacokinetic study; i.v. 3 mg/kg, 2.00 h, 3 mg/kg
  Concentration in rat plasma, individual animals 4-6: 0.0176 µg/mL and 0.0226 µg/mL
Pharmacokinetic study; i.v. 3 mg/kg, 4.00 h, 3 mg/kg
  Concentration in rat plasma, individual animals 4-6: 0.0036 µg/mL and 0.005 µg/mL
Pharmacokinetic study; i.v. 3 mg/kg, 8.00 h, 3 mg/kg
  Concentration in rat plasma, individual animals 4-6: 0.0011 µg/mL and 0.0026 µg/mL and 0.0022 µg/mL
Pharmacokinetic study; i.v. 3 mg/kg, 24.0 h, 3 mg/kg
  Concentration in rat plasma, individual animals 4-6: 0.0013 µg/mL and 0.0012 µg/mL
Pharmacokinetic study; male, SD, rat, plasma, iv, 3 mg/kg, i.v. 3 mg/kg, 0.05 h, read-out: Concentration in rat plasma, individual animals 4-6
  concentration at 0.05 h: 0.454 µg/mL
Pharmacokinetic study; male, SD, rat, plasma, iv, 3 mg/kg, i.v. 3 mg/kg, 0.05 h, read-out: Concentration in rat plasma, mean
  concentration at 0.05 h: 0.376 µg/mL
Pharmacokinetic study; male, SD, rat, plasma, iv, 3 mg/kg, i.v. 3 mg/kg, 0.25 h, read-out: Concentration in rat plasma, individual animals 4-6
  concentration at 0.25 h: 0.159 µg/mL
Pharmacokinetic study; male, SD, rat, plasma, iv, 3 mg/kg, i.v. 3 mg/kg, 0.25 h, read-out: Concentration in rat plasma, mean
  concentration at 0.25 h: 0.146 µg/mL
Pharmacokinetic study; male, SD, rat, plasma, iv, 3 mg/kg, i.v. 3 mg/kg, 0.75 h, read-out: Concentration in rat plasma, individual animals 4-6
  concentration at 0.75 h: 0.0593 µg/mL
Pharmacokinetic study; male, SD, rat, plasma, iv, 3 mg/kg, i.v. 3 mg/kg, 0.75 h, read-out: Concentration in rat plasma, mean
  concentration at 0.75 h: 0.0688 µg/mL
Pharmacokinetic study; male, SD, rat, plasma, iv, 3 mg/kg, i.v. 3 mg/kg, 2.00 h, read-out: Concentration in rat plasma, individual animals 4-6
  concentration at 2 h: 0.0134 µg/mL
Pharmacokinetic study; male, SD, rat, plasma, iv, 3 mg/kg, i.v. 3 mg/kg, 2.00 h, read-out: Concentration in rat plasma, mean
  concentration at 2 h: 0.0179 µg/mL
Pharmacokinetic study; male, SD, rat, plasma, iv, 3 mg/kg, i.v. 3 mg/kg, 4.00 h, read-out: Concentration in rat plasma, individual animals 4-6
  concentration at 4 h: 0.0029 µg/mL
Pharmacokinetic study; male, SD, rat, plasma, iv, 3 mg/kg, i.v. 3 mg/kg, 4.00 h, read-out: Concentration in rat plasma, mean
  concentration at 4 h: 0.00383 µg/mL
Pharmacokinetic study; male, SD, rat, plasma, iv, 3 mg/kg, i.v. 3 mg/kg, 8.00 h
  concentration at 8 h: 0.00197 µg/mL
Pharmacokinetic study; male, SD, rat, plasma, iv, 3 mg/kg, i.v. 3 mg/kg, 24.0 h, read-out: Concentration in rat plasma, individual animals 4-6
  concentration at 24 h: 0.0009 µg/mL
Pharmacokinetic study; male, SD, rat, plasma, iv, 3 mg/kg, i.v. 3 mg/kg, 24.0 h, read-out: Concentration in rat plasma, mean
  concentration at 24 h: 0.00113 µg/mL
Pharmacokinetic study; male, SD, rat, plasma, iv, 3 mg/kg, i.v. 3 mg/kg, individual animals 4-6
  half-life: 15.3 h
Pharmacokinetic study; male, SD, rat, plasma, iv, 3 mg/kg, rat, i.v. 3 mg/kg, individual animals 4-6, read-out: AUCINF_obs
  AUC(0-inf): 0.228 µg·h/mL
Pharmacokinetic study; male, SD, rat, plasma, iv, 3 mg/kg, rat, i.v. 3 mg/kg, individual animals 4-6, read-out: AUClast
  AUC(0-t): 0.208 µg·h/mL
Pharmacokinetic study; male, SD, rat, plasma, iv, 3 mg/kg, rat, i.v. 3 mg/kg, individual animals 4-6, read-out: CL_obs
  clearance: 13.1 L/h/kg
Pharmacokinetic study; male, SD, rat, plasma, iv, 3 mg/kg, rat, i.v. 3 mg/kg, individual animals 4-6
  MRT inf: 5.79 h
Pharmacokinetic study; male, SD, rat, plasma, iv, 3 mg/kg, rat, i.v. 3 mg/kg, mean
  MRT inf: 6.3 h
Pharmacokinetic study; male, SD, rat, plasma, po, 10 mg/kg, p.o. 10 mg/kg, 0.25 h, read-out: Concentration in rat plasma, mean
  concentration at 0.25 h: 0.0196 µg/mL
Pharmacokinetic study; male, SD, rat, plasma, po, 10 mg/kg, p.o. 10 mg/kg, 0.50 h
  concentration at 0.5 h: 0.0225 µg/mL
Pharmacokinetic study; male, SD, rat, plasma, po, 10 mg/kg, p.o. 10 mg/kg, 1.00 h
  concentration at 1 h: 0.0161 µg/mL
Pharmacokinetic study; male, SD, rat, plasma, po, 10 mg/kg, p.o. 10 mg/kg, 2.00 h, read-out: Concentration in rat plasma, individual animals 1-3
  concentration at 2 h: 0.0057 µg/mL
Pharmacokinetic study; male, SD, rat, plasma, po, 10 mg/kg, p.o. 10 mg/kg, 2.00 h, read-out: Concentration in rat plasma, mean
  concentration at 2 h: 0.00723 µg/mL
Pharmacokinetic study; male, SD, rat, plasma, po, 10 mg/kg, p.o. 10 mg/kg, 4.00 h, read-out: Concentration in rat plasma, mean
  concentration at 4 h: 0.00783 µg/mL
Pharmacokinetic study; male, SD, rat, plasma, po, 10 mg/kg, p.o. 10 mg/kg, 8.00 h
  concentration at 8 h: 0.000633 µg/mL
Pharmacokinetic study; male, SD, rat, plasma, po, 10 mg/kg, p.o. 10 mg/kg, 24.0 h, read-out: Concentration in rat plasma, mean
  concentration at 24 h: 0 µg/mL
Pharmacokinetic study; male, SD, rat, plasma, po, 10 mg/kg, p.o. 10 mg/kg, individual animals 1-3
  half-life: 1.21 h
Pharmacokinetic study; male, SD, rat, plasma, po, 10 mg/kg, rat, p.o. 10 mg/kg, individual animals 1-3, read-out: AUCINF_obs
  AUC(0-inf): 0.0579 µg·h/mL
Pharmacokinetic study; male, SD, rat, plasma, po, 10 mg/kg, rat, p.o. 10 mg/kg, individual animals 1-3, read-out: AUClast
  AUC(0-t): 0.0546 µg·h/mL
Pharmacokinetic study; male, Sprague-Dawley (SD), rat, plasma, iv, 3 mg/kg, SD rats, 3 mg/kg iv, mean
  half-life: 13.6 h
Pharmacokinetic study; male, Sprague-Dawley (SD), rat, plasma, iv, 3 mg/kg, SD rats, 3 mg/kg iv, mean, read-out: AUC0-inf
  AUC(0-inf): 0.244 µg·h/mL
Pharmacokinetic study; male, Sprague-Dawley (SD), rat, plasma, iv, 3 mg/kg, SD rats, 3 mg/kg iv, mean, read-out: AUC0-last
  AUC(0-t): 0.222 µg·h/mL
Pharmacokinetic study; male, Sprague-Dawley (SD), rat, plasma, iv, 3 mg/kg, SD rats, 3 mg/kg iv, mean, read-out: CL
  clearance: 12.3 L/h/kg
Pharmacokinetic study; male, Sprague-Dawley (SD), rat, plasma, po, 10 mg/kg, SD rats, 10 mg/kg po, mean
  half-life: 1.46 h
Pharmacokinetic study; male, Sprague-Dawley (SD), rat, plasma, po, 10 mg/kg, SD rats, 10 mg/kg po, mean, read-out: AUC0-inf
  AUC(0-inf): 0.0561 µg·h/mL
Pharmacokinetic study; male, Sprague-Dawley (SD), rat, plasma, po, 10 mg/kg, SD rats, 10 mg/kg po, mean, read-out: AUC0-last
  AUC(0-t): 0.0546 µg·h/mL
Pharmacokinetic study; male, Sprague-Dawley (SD), rat, plasma, po, 10 mg/kg, SD rats, 10 mg/kg po, mean, read-out: Cmax
  Cmax: 0.0238 µg/mL
Pharmacokinetic study; male, Sprague-Dawley (SD), rat, plasma, po, 10 mg/kg, SD rats, 10 mg/kg po, mean, read-out: Tmax
  Tmax: 1.67 h
Pharmacokinetic study; male, Sprague-Dawley (SD), rat, plasma, po, 10 mg/kg, rat, p.o. 10 mg/kg, mean
  MRT inf: 2.61 h
Pharmacokinetic study; male, Sprague-Dawley (SD), rat, plasma, SD rats, 3 mg/kg iv, mean, read-out: Vss
  Vd: 77.5 L/kg
Pharmacokinetic study; male, Sprague-Dawley (SD), rat, plasma, SD rats, 10 mg/kg po vs 3 mg/kg iv
  bioavailability: 7.39%
Pharmacokinetic study; p.o. 10 mg/kg, 0.25 h, 10 mg/kg
  Concentration in rat plasma, individual animals 1-3: 29.9 ng/mL and 7.10 ng/mL and 21.9 ng/mL
Pharmacokinetic study; p.o. 10 mg/kg, 0.50 h, 10 mg/kg
  Concentration in rat plasma, individual animals 1-3: 10.0 ng/mL and 27.4 ng/mL and 30.0 ng/mL
Pharmacokinetic study; p.o. 10 mg/kg, 1.00 h, 10 mg/kg
  Concentration in rat plasma, individual animals 1-3: 8.00 ng/mL and 18.7 ng/mL and 21.7 ng/mL
Pharmacokinetic study; p.o. 10 mg/kg, 2.00 h, 10 mg/kg
  Concentration in rat plasma, individual animals 1-3: 9.40 ng/mL and 6.60 ng/mL
Pharmacokinetic study; p.o. 10 mg/kg, 4.00 h, 10 mg/kg
  Concentration in rat plasma, individual animals 1-3: 13.9 ng/mL and 4.80 ng/mL (2×)
Pharmacokinetic study; p.o. 10 mg/kg, 8.00 h, 10 mg/kg
  Concentration in rat plasma, individual animals 1-3: 1.20 ng/mL and 0.400 ng/mL and 0.300 ng/mL
Pharmacokinetic study; p.o. 10 mg/kg, 24.0 h, BLQ: Below LLOQ (LLOQ = 0.3 ng/mL)
  Concentration in rat plasma, individual animals 1-3: BLQ
Pharmacokinetic study; [1]
  AUCINF_obs: 0.247 µg·h/mL and 0.255 µg·h/mL
  AUClast: 0.22 µg·h/mL and 0.236 µg·h/mL
  CL_obs: 12.1 L/h/kg and 11.8 L/h/kg
  MRTINF_obs: 7.48 h and 5.59 h
  T1/2: 14.2 h and 11.2 h
  Vss_obs: 76.143 L/kg and 90.763 L/kg and 65.72 L/kg
Pharmacokinetic study; rat, i.v. 3 mg/kg, mean
  Vss_obs: 77.542 L/kg
Pharmacokinetic study; [2]
  AUCINF_obs: 0.0553 µg·h/mL and 0.055 µg·h/mL
  AUClast: 0.0545 µg·h/mL
  Cmax: 0.0139 µg/mL and 0.0274 µg/mL and 0.03 µg/mL
  MRTINF_obs: 3.89 h and 2.08 h and 1.87 h
  T1/2: 1.88 h and 1.29 h
  Tmax: 4.00 h and 0.50 h (2×)
STAT3-STAT3 dimerization
  binding of HA-STAT3 and Flag-STAT3 (STAT3 dimerization): inhibited the binding of HA-STAT3 and Flag-STAT3 in intact cells even at 0.3 μM
